Experimental data published in patent US11168102B1, “Bicyclic heteroaryl compounds and uses thereof” (Revolution Medicines, Inc., priority 2019, dated 2021).
pIC50: −log10 of the molar value. Like-named read-outs stand apart in the source and are kept apart here.

Tested on: cellular pERK in PC-9 cells (EGFR Ex19Del)
Experiment: Potency assay: pERK (AlphaLISA SureFire Ultra p-ERK1/2) in PC-9 cells
Format: cell-based
Details: read-out: SOS1 pERK IC50
[1] = Homo sapiens, PC-9, 1 h, PC-9 cells (EGFR Ex19Del), 1 hour incubation, AlphaLISA SureFire Ultra p-ERK1/2
[2] = PC-9 cells (EGFR Ex19Del), 1 hour incubation, AlphaLISA SureFire Ultra p-ERK1/2

pIC50 [1] | SMILES | further results
7.34 | C[C@@H](Nc1ncnc2c1cc(C1(N)CCS(=O)(=O)CC1)c(=O)n2C)c1cccc(C(F)F)c1F [Example 31-1] | –
6.11 | CC(=O)NC1(c2cc3c(N[C@H](C)c4cccc(C(F)F)c4F)ncnc3n(C)c2=O)CCS(=O)(=O)CC1 [Example 31-3] | –
6.74 | C[C@@H](Nc1ncnc2c1cc(C1(N)CC3(C1)CS(=O)(=O)C3)c(=O)n2C)c1cccc(C(F)F)c1F [Example 31-4] | –
6.72 | C[C@@H](Nc1ncnc2c1cc(C1(N)CS(=O)(=O)C1)c(=O)n2C)c1cccc(C(F)F)c1F [Example 31-6] | –
7.34 | C[C@@H](Nc1ncnc2c1cc(C1(N)CCS(=O)(=O)C1)c(=O)n2C)c1cccc(C(F)F)c1F (stereo partly drawn) [Example 31-7] | –
6.91 | COC1(c2cc3c(N[C@H](C)c4cccc(C(F)F)c4F)ncnc3n(C)c2=O)CCN(C(C)=O)CC1 [Example 32-1] | –
8.00 | CO[C@]1(c2cc3c(N[C@H](C)c4cccc(C(F)F)c4F)ncnc3n(C)c2=O)CCN(C(C)=O)C1 [Example 32-2] | –
8.03 | COC1(c2cc3c(N[C@H](C)c4cccc(C(F)F)c4F)ncnc3n(C)c2=O)CCC2(CC1)CS(=O)(=O)C2 [Example 32-4] | –
7.45 | COC1(c2cc3c(N[C@H](C)c4cccc(C(F)F)c4F)ncnc3n(C)c2=O)CC2(C1)CS(=O)(=O)C2 [Example 32-5] | –
7.41 | COC1(c2cc3c(N[C@H](C)c4cccc(C(F)F)c4F)ncnc3n(C)c2=O)CCN(S(C)(=O)=O)C1 (stereo partly drawn) [Example 32-6] | –
7.15 | COC1(c2cc3c(N[C@H](C)c4cccc(C(F)F)c4F)ncnc3n(C)c2=O)CN(C(C)=O)C1 [Example 32-7] | –

The remaining lines, values behind:

SMILES | pIC50 [1] | further results
CC(=O)N1CC2(CCN2C(=O)c2cc3c(N[C@H](C)c4cccc(C(F)F)c4F)ncnc3n(C)c2=O)C1 [Example 26-51] | 6.35 | –
C[C@@H](Nc1ncnc2c1cc(C(=O)N1CCC13CS(=O)(=O)C3)c(=O)n2C)c1cccc(C(F)F)c1F [Example 26-52] | 6.82 | –
Cc1nc(N[C@H](C)c2cccc(C(F)F)c2F)c2cc(CN3CCOCC3)c(=O)n(C)c2n1 [Example 27, 4-{[(1R)-1-[3-(difluoromethyl)-2-fluorophenyl]ethyl]amino}-2,8-dimethyl-6-[(morpholin-4-yl)meth-yl]-7H,8H-pyrido[2,3-d]pyrimidin-7-one] | 6.07 | –
C[C@@H](Nc1ncnc2c1cc(C1(O)CCS(=O)(=O)CC1)c(=O)n2C)c1cccc(C(F)F)c1F [Example 28, 4-(4-{[(1R)-1-[3-(difluoromethyl)-2-fluorophenyl]-ethyl]amino}-8-methyl-7-oxo-7H,8H-pyrido[2,3-d]pyrimidin-6-yl)-4-hydroxy-1λ^6-thiane-1,1-dione] | 7.03 | –
C[C@@H](Nc1ncnc2c1cc(C1(O)CCN(C)CC1)c(=O)n2C)c1cccc(C(F)F)c1F [Example 28-1] | – | pIC50 (Homo sapiens, PC-9, 1 h): 6.73
Cc1nc(N[C@H](C)c2cccc(C(F)F)c2F)c2cc(C3(O)CCN(C)CC3)c(=O)n(C)c2n1 [Example 28-2] | – | pIC50 (Homo sapiens, PC-9, 1 h): 6.24
C[C@@H](Nc1ncnc2c1cc(C1(O)CC3(C1)CS(=O)(=O)C3)c(=O)n2C)c1cccc(C(F)F)c1F [Example 28-4] | 7.08 | –
C[C@@H](Nc1ncnc2c1cc(C1(O)CC3CCC(C1)S3(=O)=O)c(=O)n2C)c1cccc(C(F)F)c1F (stereo partly drawn) [Example 28-5] | 6.80 | –
C[C@@H](Nc1ncnc2c1cc(C1(O)CS(=O)(=O)C1)c(=O)n2C)c1cccc(C(F)F)c1F [Example 28-7] | 6.49 | –
CC(=O)N1CCC(O)(c2cc3c(N[C@H](C)c4cccc(C(F)F)c4F)ncnc3n(C)c2=O)CC1 [Example 28-8] | 7.49 | –
C[C@@H](Nc1ncnc2c1cc(C1(O)CCN(C(=O)OC(C)(C)C)C1)c(=O)n2C)c1cccc(C(F)F)c1F (stereo partly drawn) [Example 28-9] | 6.43 | –
C[C@@H](Nc1ncnc2c1cc(C1(F)CCS(=O)(=O)CC1)c(=O)n2C)c1cccc(C(F)F)c1F [Example 29, 4-(4-{[(1R)-1-[3-(difluoromethyl)-2-fluorophenyl]ethyl]amino}-8-methyl-7-oxo-7H,8H-pyrido[2,3-d]-pyrimidin-6-yl)-4-fluoro-1λ^6-thiane-1,1-dione] | 7.46 | –
C[C@@H](Nc1ncnc2c1cc(C1(F)CN(C)C1)c(=O)n2C)c1cccc(C(F)F)c1F [Example 29-1] | 6.91 | –
CC(=O)N1CC(F)(c2cc3c(N[C@H](C)c4cccc(C(F)F)c4F)ncnc3n(C)c2=O)C1 [Example 29-2] | 7.04 | –
C[C@@H](Nc1ncnc2c1cc(C1(F)CN(S(C)(=O)=O)C1)c(=O)n2C)c1cccc(C(F)F)c1F [Example 29-6] | 6.33 | –
C[C@@H](Nc1ncnc2c1cc(C1(F)CCC3(CC1)CS(=O)(=O)C3)c(=O)n2C)c1cccc(C(F)F)c1F [Example 29-7] | 7.09 | –

SMILES | pIC50 [1] | further results
C[C@@H](Nc1ncnc2c1cc(C1(F)CC3(C1)CS(=O)(=O)C3)c(=O)n2C)c1cccc(C(F)F)c1F [Example 29-8] | 7.27 | –
C[C@@H](Nc1ncnc2c1cc(C1(F)CCP(C)(=O)CC1)c(=O)n2C)c1cccc(C(F)F)c1F (stereo partly drawn) [Example 29-9] | 6.79 | –
C[C@@H](Nc1ncnc2c1cc(C1(F)CCP(C)(=O)CC1)c(=O)n2C)c1cccc(C(F)F)c1F (stereo partly drawn) [Example 29-10] | – | pIC50 [2]: 6.85
C[C@@H](Nc1ncnc2c1cc(C1(F)CCS(=O)(=O)C1)c(=O)n2C)c1cccc(C(F)F)c1F (stereo partly drawn) [Example 29-11] | 7.35 | –
C[C@@H](Nc1ncnc2c1cc(C1(F)CCS(=O)(=O)C1)c(=O)n2C)c1cccc(C(F)F)c1F (stereo partly drawn) [Example 29-12] | – | pIC50 [2]: 7.27
C[C@@H](Nc1ncnc2c1cc(C1(F)CCN(C3COC3)CC1)c(=O)n2C)c1cccc(C(F)F)c1F [Example 29-13] | 6.71 | –
C[C@@H](Nc1ncnc2c1cc(C1(F)CCS(=N)(=O)CC1)c(=O)n2C)c1cccc(C(F)F)c1F (stereo partly drawn) [Example 29-14] | 7.45 | –
C[C@@H](Nc1ncnc2c1cc(C1(F)CCS(=N)(=O)CC1)c(=O)n2C)c1cccc(C(F)F)c1F (stereo partly drawn) [Example 29-15] | – | pIC50 [2]: 7.37
C[C@@H](Nc1ncnc2c1cc(Sc1ccccc1)c(=O)n2C)c1cccc(C(F)F)c1F [Example 30, 4-{[(1R)-1-[3-(difluoromethyl)-2-fluorophenyl]ethyl]amino}-8-methyl-6-(phenylsulfanyl)-7H,8H-pyrido[2,3-d]pyrimidin-7-one] | 5.56 | –
C[C@@H](Nc1ncnc2c1cc(C1(N)CCOCC1)c(=O)n2C)c1cccc(C(F)F)c1F [Example 31, 6-(4-aminooxan-4-yl)-4-{[(1R)-1-[3-(difluoromethyl)-2-fluorophenyl]ethyl]amino}-8-methyl-7H,8H-pyrido-[2,3-d]pyrimidin-7-one] | 7.84 | –
C[C@@H](Nc1ncnc2c1cc(C1(N)CCC3(CC1)CS(=O)(=O)C3)c(=O)n2C)c1cccc(C(F)F)c1F [Example 31-5] | – | pIC50 (Homo sapiens, PC-9, 1 h): 7.57
C[C@@H](Nc1ncnc2c1cc(C1(N)CCP(C)(=O)CC1)c(=O)n2C)c1cccc(C(F)F)c1F (stereo partly drawn) [Example 31-10] | – | pIC50 [2]: 7.29
C[C@@H](Nc1ncnc2c1cc(C1(N)CCP(C)(=O)CC1)c(=O)n2C)c1cccc(C(F)F)c1F (stereo partly drawn) [Example 31-11] | – | pIC50 [2]: 6.24
COC1(c2cc3c(N[C@H](C)c4cccc(C(F)F)c4F)ncnc3n(C)c2=O)CCS(=O)(=O)CC1 [Example 32, 4-(4-{[(1R)-1-[3-(difluoro-methyl)-2-fluorophenyl]ethyl]amino}-8-methyl-7-oxo-7H,8H-pyrido[2,3-d]pyrimidin-6-yl)-4-methoxy-λ1^6-thiane-1,1-dione] | 7.23 | –
COC1(c2cc3c(N[C@H](C)c4cccc(C(F)F)c4F)ncnc3n(C)c2=O)CCN(C)CC1 [Example 32-3] | – | pIC50 (Homo sapiens, PC-9, 1 h): 5.65
